# Data reported in ChEMBL document CHEMBL4828717, “Synthetic cajaninstilbene acid derivatives eradicate methicillin-resistant Staphylococcus aureus persisters and biofilms” (Eur J Med Chem, 2021).
# How the values were obtained:
# [1] = test system: Staphylococcus aureus; test: Antibacterial activity against Staphylococcus aureus ATCC 25923 assessed as reduction in microbial growth after 16 to 18 hrs by microbroth dilution method; format: functional; conditions: time 16-18 hrs
# [2] = test system: Staphylococcus aureus; test: Antibacterial activity against methicillin resistant Staphylococcus aureus ATCC 43300 assessed as reduction in microbial growth after 16 to 18 hrs by microbroth dilution method; format: functional; conditions: time 16-18 hrs
# [3] = test system: Staphylococcus aureus; test: Antibacterial activity against methicillin resistant Staphylococcus aureus ATCC 62202 assessed as reduction in microbial growth after 16 to 18 hrs by microbroth dilution method; format: functional; conditions: time 16-18 hrs
# [4] = test system: Staphylococcus aureus; test: Antibacterial activity against methicillin resistant Staphylococcus aureus ATCC 52056 assessed as reduction in microbial growth after 16 to 18 hrs by microbroth dilution method; format: functional; conditions: time 16-18 hrs
# [5] = test system: Staphylococcus aureus; test: Antibacterial activity against methicillin resistant Staphylococcus aureus ATCC513045 assessed as reduction in microbial growth after 16 to 18 hrs by microbroth dilution method; format: functional; conditions: time 16-18 hrs
# [6] = test system: Staphylococcus aureus; test: Antibacterial activity against methicillin resistant Staphylococcus aureus ATCC515992 assessed as reduction in microbial growth after 16 to 18 hrs by microbroth dilution method; format: functional; conditions: time 16-18 hrs
# [7] = test system: Staphylococcus aureus; test: Antibacterial activity against methicillin resistant Staphylococcus aureus ATCC49800 assessed as reduction in microbial growth after 16 to 18 hrs by microbroth dilution method; format: functional; conditions: time 16-18 hrs
# [8] = test system: Staphylococcus aureus; test: Antibacterial activity against methicillin resistant Staphylococcus aureus ATCC49025 assessed as reduction in microbial growth after 16 to 18 hrs by microbroth dilution method; format: functional; conditions: time 16-18 hrs
# [9] = test system: Staphylococcus aureus; test: Antibacterial activity against methicillin resistant Staphylococcus aureus ATCC48073 assessed as reduction in microbial growth after 16 to 18 hrs by microbroth dilution method; format: functional; conditions: time 16-18 hrs
# [10] = test system: Staphylococcus aureus; test: Antibacterial activity against methicillin resistant Staphylococcus aureus ATCC48966 assessed as reduction in microbial growth after 16 to 18 hrs by microbroth dilution method; format: functional; conditions: time 16-18 hrs
# [11] = test system: Staphylococcus aureus; test: Antibacterial activity against methicillin resistant Staphylococcus aureus ATCC49008 assessed as reduction in microbial growth after 16 to 18 hrs by microbroth dilution method; format: functional; conditions: time 16-18 hrs
# [12] = test system: Staphylococcus aureus; test: Antibacterial activity against methicillin resistant Staphylococcus aureus ATCC48706 assessed as reduction in microbial growth after 16 to 18 hrs by microbroth dilution method; format: functional; conditions: time 16-18 hrs
# [13] = test system: Escherichia coli; test: Antibacterial activity against Escherichia coli ATCC25922 assessed as reduction in microbial growth after 16 to 18 hrs by microbroth dilution method; format: functional; conditions: ATCC 25922, time 16-18 hrs
# [14] = test system: Pseudomonas aeruginosa; test: Antibacterial activity against Pseudomonas aeruginosa ATCC27853 assessed as reduction in microbial growth after 16 to 18 hrs by microbroth dilution method; format: functional; conditions: time 16-18 hrs
# [15] = test system: Enterococcus faecalis; test: Antibacterial activity against Enterococcus faecalis ATCC29212 assessed as reduction in microbial growth after 16 to 18 hrs by microbroth dilution method; format: functional; conditions: ATCC 29212, time 16-18 hrs
# [16] = test system: RAW264.7; test: Cytotoxicity against mouse RAW264.7 cells assessed as cell viability at 10 ug/ml measured after 24 hrs by MTT assay; format: cell-based; conditions: raw264.7, 24 h, dose 10 µg/ml
# [17] = test system: L02; test: Cytotoxicity against human L02 cells assessed as cell viability at 10 ug/ml measured after 24 hrs by MTT assay; format: cell-based; conditions: l02, 24 h, dose 10 µg/ml
SMILES,MIC [1] [µg/mL],MIC [2] [µg/mL],MIC [3] [µg/mL],MIC [4] [µg/mL],MIC [5] [µg/mL],MIC [6] [µg/mL],MIC [7] [µg/mL],MIC [8] [µg/mL],MIC [9] [µg/mL],MIC [10] [µg/mL],MIC [11] [µg/mL],MIC [12] [µg/mL],MIC [13] [µg/mL],MIC [14] [µg/mL],MIC [15] [µg/mL],Activity [16],Activity [17]
CC(C)=CCc1c(OCC2CC2)cc(/C=C/c2ccc(F)cc2)c(C(=O)O)c1O,2,2,4,2,2,2,2,2,2,2,2,2,> 32,> 32,> 32,Toxic,Toxic
CC(C)=CCc1c(OCCCF)cc(/C=C/c2ccc(C(F)(F)F)cc2)c(C(=O)O)c1O,2,2,4,2,2,4,4,4,4,4,4,4,> 32,> 32,> 32,Toxic,Toxic
CC(C)=CCc1c(OCCCCF)cc(/C=C/c2ccc(C(F)(F)F)cc2)c(C(=O)O)c1O,4,2,4,2,4,2,4,4,4,4,4,4,> 32,> 32,> 32,Toxic,Toxic
CC(C)=CCc1c(OCC(F)(F)F)cc(/C=C/c2ccc(F)cc2)c(C(=O)O)c1O,4,2,4,2,4,4,4,4,4,4,4,4,> 32,> 32,> 32,Toxic,Toxic
CC(C)=CCc1c(OCc2ccccc2)cc(/C=C/c2ccc(F)cc2)c(C(=O)O)c1O,4,32,4,4,4,4,4,4,4,4,4,4,> 32,> 32,> 32,Toxic,Toxic
CC(C)=CCc1c(OCCC(F)(F)F)cc(/C=C/c2ccc(C(F)(F)F)cc2)c(C(=O)O)c1O,2,2,2,2,2,2,4,4,4,4,4,4,> 32,> 32,> 32,Toxic,Toxic
CCC(C)Oc1cc(/C=C/c2ccc(C(F)(F)F)cc2)c(C(=O)O)c(O)c1CC=C(C)C (configuration not stated),2,1,2,2,2,2,2,2,2,2,2,2,> 32,> 32,> 32,Toxic,Toxic
CCC(CC)Oc1cc(/C=C/c2ccc(F)cc2)c(C(=O)O)c(O)c1CC=C(C)C,2,2,2,2,2,4,2,2,4,2,2,2,> 32,> 32,> 32,Toxic,Toxic
CC(C)=CCc1c(OCCF)cc(/C=C/c2ccc(C(F)(F)F)cc2)c(C(=O)O)c1O,4,2,4,2,4,4,8,8,8,8,8,8,> 32,> 32,> 32,Toxic,Toxic
CC(C)=CCc1c(OCC2CC2)cc(/C=C/c2ccc(C(F)(F)F)cc2)c(C(=O)O)c1O,1,2,2,1,2,2,2,2,2,2,2,2,> 32,> 32,> 32,Toxic,Toxic
CC(C)=CCc1c(OC2CCC2)cc(/C=C/c2ccc(F)cc2)c(C(=O)O)c1O,2,2,4,2,2,4,2,2,2,2,2,2,> 32,> 32,> 32,Toxic,Toxic
